Several values for one entry are separate records, joined by “and”; a condition that tells them apart may be missing. Equal entries are not always repeated.
T1: Eht1 (Saccharomyces cerevisiae, UniProt P38295)
T1 construct: 55 kDa
T1 sequence (P38295 1-451): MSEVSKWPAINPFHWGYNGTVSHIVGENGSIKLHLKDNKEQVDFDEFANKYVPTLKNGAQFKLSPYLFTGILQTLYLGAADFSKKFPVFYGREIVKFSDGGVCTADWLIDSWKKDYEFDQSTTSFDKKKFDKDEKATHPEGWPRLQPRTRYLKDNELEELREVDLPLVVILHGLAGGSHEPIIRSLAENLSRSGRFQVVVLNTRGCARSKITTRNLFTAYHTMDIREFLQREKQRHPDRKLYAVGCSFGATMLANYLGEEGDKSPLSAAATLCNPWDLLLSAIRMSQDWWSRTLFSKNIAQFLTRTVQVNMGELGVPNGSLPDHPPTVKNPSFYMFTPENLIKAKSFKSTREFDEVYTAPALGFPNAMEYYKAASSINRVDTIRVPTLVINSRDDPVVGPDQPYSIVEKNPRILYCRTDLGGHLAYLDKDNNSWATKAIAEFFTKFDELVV


Key:
Eht1 = molecular target: T1, Eht1; test: coupled alpha-ketoglutarate dehydrogenase assay of CoA release (NADH); assay type: biochemical; settings: 0.125% ethanol, pH 7.4, 25 °C; assay insensitive to ethanol (thioesterase)
[1] = molecular target: the molecule itself; test: SEC; Superdex 200 10/300 GL, 0.5 ml/min, in Column Buffer (50 mM sodium phosphate, pH 7.4, 150 mM NaCl, 5% glycerol, 0.1% FC-12); apparent size relative to molecular weight standards
[2] = substrate: CCCCCCCC(=O)SCCNC(=O)CCNC(=O)[C@H](O)C(C)(C)COP(=O)(O)OP(=O)(O)OC[C@H]1O[C@@H](n2cnc3c(N)ncnc32)[C@H](O)[C@@H]1OP(=O)(O)O; test: coupled alpha-ketoglutarate dehydrogenase assay of CoA release (NADH); assay type: biochemical, Saccharomyces cerevisiae; settings: 0.125% ethanol, pH 7.4, 25 °C, assay insensitive to ethanol (thioesterase)
Source text: coupled alpha-ketoglutarate dehydrogenase assay of CoA release (NADH) on Eht1 | the preferred substrate for Eht1 was octanoyl-CoA (largest kcat/KM)

[3] = molecular target: the molecule itself; test: native gel or EMSA; blue native PAGE, 4–16% acrylamide Bis–Tris gels, Coomassie G-250 added to samples at 0.005%; purified Eht1 in FC12

| Molecule | KM (Eht1) | other results |
| --- | --- | --- |
| CCCCCCCCCCCC(=O)SCCNC(=O)CCNC(=O)[C@H](O)C(C)(C)COP(=O)(O)OP(=O)(O)OC[C@H]1O[C@@H](n2cnc3c(N)ncnc32)[C@H](O)[C@@H]1OP(=O)(O)O [acyl-CoA within chain lengths C4–C14 (C12)] | acyl-CoA substrates of chain length C4–C14 followed classical Michaelis–Menten kinetics | – |
| CCCCCCCCCC(=O)SCCNC(=O)CCNC(=O)[C@H](O)C(C)(C)COP(=O)(O)OP(=O)(O)OC[C@H]1O[C@@H](n2cnc3c(N)ncnc32)[C@H](O)[C@@H]1OP(=O)(O)O [decanoyl-CoA] | acyl-CoA substrates of chain length C4–C14 followed classical Michaelis–Menten kinetics | – |
| CCCC(=O)SCCNC(=O)CCNC(=O)[C@H](O)C(C)(C)COP(=O)(O)OP(=O)(O)OC[C@H]1O[C@@H](n2cnc3c(N)ncnc32)[C@H](O)[C@@H]1OP(=O)(O)O [C4, acyl-CoA of chain length C4] | acyl-CoA substrates of chain length C4–C14 followed classical Michaelis–Menten kinetics | – |
| CCCCCCCCCCCCCC(=O)SCCNC(=O)CCNC(=O)[C@H](O)C(C)(C)COP(=O)(O)OP(=O)(O)OC[C@H]1O[C@@H](n2cnc3c(N)ncnc32)[C@H](O)[C@@H]1OP(=O)(O)O [C14, acyl-CoA of chain length C14] | acyl-CoA substrates of chain length C4–C14 followed classical Michaelis–Menten kinetics | – |
| ethanol hexanoyl transferase 1 (Eht1) (enzyme, Saccharomyces cerevisiae, UniProt P38295 1-451, looked up, Theoretical mass of the recombinant protein is printed as 55 kDa; also called recombinant Eht1; YBR177C gene product; source: yeast, plasmid pYES2CT, galactose-induced; purified from FC12-solubilized sedimenting membranes (Ni-NTA)) MSEVSKWPAINPFHWGYNGTVSHIVGENGSIKLHLKDNKEQVDFDEFANKYVPTLKNGAQFKLSPYLFTGILQTLYLGAADFSKKFPVFYGREIVKFSDGGVCTADWLIDSWKKDYEFDQSTTSFDKKKFDKDEKATHPEGWPRLQPRTRYLKDNELEELREVDLPLVVILHGLAGGSHEPIIRSLAENLSRSGRFQVVVLNTRGCARSKITTRNLFTAYHTMDIREFLQREKQRHPDRKLYAVGCSFGATMLANYLGEEGDKSPLSAAATLCNPWDLLLSAIRMSQDWWSRTLFSKNIAQFLTRTVQVNMGELGVPNGSLPDHPPTVKNPSFYMFTPENLIKAKSFKSTREFDEVYTAPALGFPNAMEYYKAASSINRVDTIRVPTLVINSRDDPVVGPDQPYSIVEKNPRILYCRTDLGGHLAYLDKDNNSWATKAIAEFFTKFDELVV | – | stoichiometry N [1]: ~5; Km [2]: 1.9 ± 0.6 µM; kcat [2]: 0.28 ± 0.02 s⁻¹; stoichiometry N [3]: ~2 and ~4 |
